US7566712B2, “Biaryl piperazinyl-pyridine analogues” (Neurogen Corporation, priority 2003, dated 2009)

The compounds below were run against T1, human capsaicin receptor (Homo sapiens, UniProt Q8NER1) (assay: Calcium mobilization assay, determination of antagonist activity (Example 6)). Conditions: Table II; IC50 determined as described in Example 6.
T1 construct: pBK-CMV expression construct encoding the full length human capsaicin receptor; expressed in transfected cells
Format: cell-based
Outline: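 Antagonism measured as inhibition of capsaicin-evoked (final concentration = EC50, from an 8-point 1 nM–3 μM curve) Fluo-3 calcium signal in stable hVR1-HEK293 cells. Test compounds at 1–5 μM final, 0.5–6 h dark preincubation at room temperature. IC50 = concentration giving 50% reduction versus agonist-only response.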

T1 sequence (Q8NER1 whole entry): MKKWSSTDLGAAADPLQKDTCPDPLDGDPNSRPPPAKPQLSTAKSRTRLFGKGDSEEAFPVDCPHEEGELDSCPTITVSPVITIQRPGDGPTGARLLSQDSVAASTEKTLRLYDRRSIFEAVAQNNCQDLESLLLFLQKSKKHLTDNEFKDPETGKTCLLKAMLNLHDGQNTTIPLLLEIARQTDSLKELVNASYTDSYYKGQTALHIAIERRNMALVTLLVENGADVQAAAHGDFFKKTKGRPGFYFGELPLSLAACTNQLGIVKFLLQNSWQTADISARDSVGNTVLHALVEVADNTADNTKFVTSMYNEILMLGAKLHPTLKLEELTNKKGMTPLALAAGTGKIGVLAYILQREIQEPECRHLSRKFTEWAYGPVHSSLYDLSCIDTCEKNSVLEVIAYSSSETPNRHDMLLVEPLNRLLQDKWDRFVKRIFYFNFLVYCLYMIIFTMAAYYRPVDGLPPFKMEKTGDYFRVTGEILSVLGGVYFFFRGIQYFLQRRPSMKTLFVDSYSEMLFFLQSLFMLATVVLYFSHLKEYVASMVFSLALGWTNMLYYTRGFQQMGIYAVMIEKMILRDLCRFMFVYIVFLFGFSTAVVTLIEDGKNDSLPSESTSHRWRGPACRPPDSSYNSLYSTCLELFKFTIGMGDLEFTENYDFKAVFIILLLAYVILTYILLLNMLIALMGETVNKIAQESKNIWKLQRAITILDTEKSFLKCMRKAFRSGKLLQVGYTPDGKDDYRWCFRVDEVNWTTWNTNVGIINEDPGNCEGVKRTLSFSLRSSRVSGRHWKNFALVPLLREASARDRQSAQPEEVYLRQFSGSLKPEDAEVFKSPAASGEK

IC50, ≤ 1000 nM:
Cc1ccc(-c2cc(N3CCN(c4ncccc4C)C[C@H]3C)nc(N3CCOCC3)n2)cc1F [Example 494, 4-{4-(3-fluoro-4-methylphenyl)-6-[(2R)-2-methyl-4-(3-methylpyridin-2-yl)piperazin-1-yl]pyrimidin-2-yl}morpholine]
Cc1cccnc1N1CCN(c2cc(-c3cccc(Cl)c3)nc(N3CCOCC3)n2)[C@H](C)C1 [Example 480, 4-{4-(3-chlorophenyl)-6-[(2R)-2-methyl-4-(3-methylpyridin-2-yl)piperazin-1-yl]pyrimidin-2-yl}morpholine]
C[C@@H]1CN(c2ncccc2C#N)CCN1c1cc(-c2ccc3ccccc3c2)nc(N2CCOCC2)n1 [Example 489, 2-{(3R)-3-methyl-4-[2-morpholin-4-yl-6-(2-naphthyl)pyrimidin-4-yl]piperazin-1-yl}nicotinonitrile]
C=CCN1CCN(c2nc(-c3cccc(C)c3)nc(N3CCN(c4ncccc4C(F)(F)F)CC3)n2)CC1 [Example 453, 2-(4-allylpiperazin-1-yl)-4-(3-methylphenyl)-6-{4-[3-(trifluoromethyl)pyridin-2-yl]piperazin-1-yl}-1,3,5-triazine]
CC(C)c1cccc(-c2cc(N3CCN(c4ncccc4Cl)C[C@H]3C)nc(N3CCOCC3)n2)c1 [Example 502, 4-[4-[(2R)-4-(3-chloropyridin-2-yl)-2-methylpiperazin-1-yl]-6-(3-isopropylphenyl)pyrimidin-2-yl]morpholine]
Fc1ccc(-c2cc(N3CCN(c4ncccc4C(F)(F)F)CC3)nc(OCCN3CCCC3)n2)cc1Cl [Example 558, 4-(3-chloro-4-fluorophenyl)-2-(2-pyrrolidin-1-ylethoxy)-6-{4-[3-(trifluoromethyl)pyridin-2-yf]piperazin-1-yl}pyrimidine]
C[C@@H]1CN(c2ncccc2Cl)CCN1c1cc(-c2ccc(Cl)cc2)nc(N2CCOCC2)n1 [Example 485, 4-{4-(4-chlorophenyl)-6-[(2R)-4-(3-chloropyridin-2-yl)-2-methylpiperazin-1-yl]pyrimidin-2-yl}morpholine]
COc1cccc(-c2cc(N3CCN(c4ncccc4C)C[C@H]3C)nc(N3CCOCC3)n2)c1 [Example 524, 4-{4-(3-methoxyphenyl)-6-[(2R)-2-methyl-4-(3-methylpyridin-2-yl)piperazin-1-yl]pyrimidin-2-yl}morpholine]

Same assay, conditions: Table II; IC50 determined as described in Example 6 (antagonist activity, calcium mobilization)

IC50, ≤ 1000 nM:
C[C@@H]1CN(c2nccnc2Cl)CCN1c1cc(-c2ccc(F)c(Cl)c2)nc(N2CCC[C@@H]2C)n1 [Example 986, 4-(3-chloro-4-fluorophenyl)-6-[(2R)-4-(3-chloropyrazin-2-yl)-2-methylpiperazin-1-yl]-2-[(2S)-2-methylpyrrolidin-1-yl]pyrimidine]
C[C@@H]1CN(c2ncccc2Cl)CCN1c1cc(-c2ccc(F)c(Cl)c2)nc(N2CCOC[C@@H]2C)n1 [Example 1000, (3S)-4-{4-(3-ohloro-4-fluorophenyl)-6-[(2R)-4-(3-chloropyridin-2-yl)-2-methylpiperazin-1-yl]pyrimidin-2-yl}-3-methylmorpholine]

Same assay, conditions: Table II; determined as described in Example 6 (antagonist activity); "*" = 1 micromolar or less

IC50, ≤ 1000 nM:
COc1ncc(Cl)c(N2CCN(c3cc(-c4ccc(F)cc4)nc(Cl)n3)[C@H](C)C2)n1 [Example 965, 5-chloro-4-{(3R)-4-[2-chloro-6-(4-fluorophenyl)pyrimidin-4-yl]-3-methylpiperazin-1-yl}-2-methoxypyrimidine]
Cc1ccc(C)n1-c1nc(-c2ccc(F)cc2)cc(N2CCN(c3ncccc3C(F)(F)F)CC2)n1 [Example 875, 2-(2,5-dimethyl-1H-pyrrol-1-yl)-4-(4-fluorophenyl)-6-{4-[3-(trifluoromethyl)pyridin-2-yl]piperazin-1-yl}pyrimidine]
C[C@@H]1CCCN1c1nc(-c2ccc(F)c(F)c2)cc(N2CCN(c3ncccc3Cl)C[C@@H]2C)n1 [Example 930, 4-[(2S)-4-(3-chloropyridin-2-yl)-2-methylpiperazin-1-yl]-6-(3,4-difluorophenyl)-2-[(2R)-2-methylpyrrolidin-1-yl]pyrimidine]
Cc1cc(-c2cc(N3CCN(c4ncccc4Cl)C[C@@H]3C)nc(Cl)n2)ccc1F [Example 898, 2-chloro-4-[(2S)-4-(3-chloropyridin-2-yl)-2-methylpiperazin-1-yl]-6-(4-fluoro-3-methylphenyl)pyrimidine]
Cc1cc(-c2cc(N3CCN(c4ncccc4Cl)C[C@@H]3C)nc(N3CCCC3C)n2)ccc1F (stereo in doubt) [Example 903, 4-[4-(3-chloropyridin-2-yl)-2-methylpiperazin-1-yl]-6-(4-fluoro-3-methylphenyl)-2-(2-methylpyrrolidin-1-yl)pyrimidine]
Cc1cc(-c2cc(N3CCN(c4nccnc4Cl)C[C@H]3C)nc(N3CCOCC3)n2)ccc1F [Example 916, 4-[4-[(2R)-4-(3-chloropyrazin-2-yl)-2-methylpiperazin-1-yl]-6-(4-fluoro-3-methylphenyl)pyrimidin-2-yl]morpholine]
CCCN1CCN(c2nc(-c3ccc(F)c(Cl)c3)cc(N3CCN(c4ncccc4Cl)C[C@H]3C)n2)CC1 [Example 779, 4-(3-chloro-4-fluorophenyl)-6-[(2R)-4-(3-chloropyridin-2-yl)-2-methylpiperazin-1-yl]-2-(4-propylpiperazin-1-yl)pyrimidine]
C[C@@H]1CCCN1c1nc(-c2ccc(Cl)c(F)c2)cc(N2CCN(c3ncccc3Cl)C[C@@H]2C)n1 [Example 958, 4-(4-chloro-3-fluorophenyl)-6-[(2S)-4-(3-chloropyridin-2-yl)-2-methylpiperazin-1-yl]-2-[(2R)-2-methylpyrrolidin-1-yl]pyrimidine]
O=C(O)C1CCCCN1c1nc(-c2ccc(F)c(Cl)c2)cc(N2CCN(c3ncccc3C(F)(F)F)CC2)n1 (centres unmarked) [Example 832, 1-(4-(3-chloro-4-fluorophenyl)-6-{4-[3-(trifluoromethyl)pyridin-2-yl]piperazin-1-yl}pyrimidin-2-yl)piperidine-2-carboxylic acid]
COc1ncc(Cl)c(N2CCN(c3nc(-c4ccc(F)cc4)cc(N4CCC[C@H]4C)n3)[C@H](C)C2)n1 [Example 968, 5-chloro-4-((3R)-4-{4-(4-fluorophenyl)-6-[(2R)-2-methylpyrrolidin-1-yl]pyrimidin-2-yl}-3-methylpiperazin-1-yl)-2-methoxypyrimidine]
CC1CCCN1c1nc(-c2ccc(F)c(Cl)c2)cc(N2CCN(c3ncc(C(=O)N(C)C)cc3Cl)CC2)n1 (centres unmarked) [Example 824, 5-chloro-6-{4-[6-(3-chloro-4-fluorophenyl)-2-(2-methylpyrrolidin-1-yl)pyrimidin-4-yl]piperazin-1-yl}-N,N-dimethylnicotinamide]

Same assay, conditions: determined as described in Example 6 (calcium mobilization, antagonist activity); Table II

IC50, ≤ 1000 nM:
CC1(C)CCCN1c1nc(-c2ccc(F)c(Cl)c2)cc(N2CCN(c3ncccc3C(F)(F)F)CC2)n1 [Example 699, 4-(3-chloro-4-fluorophenyl)-2-(2,2-dimethylpyrrolidin-1-yl)-6-{4-[3-(trifluoromethyl)pyridin-2-yl]piperazin-1-yl}pyrimidine]
Cc1cc(-c2cc(N3CCN(c4ncccc4Cl)CC3)nc(N3CCCCC3)n2)ccc1F [Example 717, 4-[4-(3-chloropyridin-2-yl)piperazin-1-yl]-6-(4-fluoro-3-methylphenyl)-2-piperidin-1-ylpyrimidine]
CC1CCN1c1nc(-c2ccc(F)c(Cl)c2)cc(N2CCN(c3ncccc3C(F)(F)F)CC2)n1 (centres unmarked) [Example 746, 4-(3-ohloro-4-fluorophenyl)-2-(2-methylazetidin-1-yl)-6-{4-[3-(trifluoromethyl)pyridin-2-yl]piperazin-1-yl}pyrimidine]
Fc1ccc(-c2cc(N3CCN(c4ncccc4C(F)(F)F)CC3)nc(N3CCC(N4CCCC4)CC3)n2)cc1Cl [Example 666, 4-(3-chloro-4-fluorophenyl)-2-(4-pyrrolidin-1-ylpiperidin-1-yl)-6-{4-[3-(trifluoromethyl)pyridin-2-yl]piperazin-1-yl}pyrimidine]
Cc1cccnc1-c1nc(-c2ccc(F)c(Cl)c2)cc(N2CCN(c3ncccc3C(F)(F)F)CC2)n1 [Example 616, 4-(3-chloro-4-fluorophenyl)-2-(3-methylpyridin-2-yl)-6-{4-[3-(trifluoromethyl)pyridin-2-yl]piperazin-1-yl}pyrimidine]
Fc1ccc(-c2cc(N3CCN(c4ncccc4C(F)(F)F)CC3)nc(N3CCN(CC4CC4)CC3)n2)cc1Cl [Example 624, 4-(3-chloro-4-fluorophenyl)-2-[4-(cyclopropylmethyl)piperazin-1-yl]-6-{4-[3-(trifluoromethyl)pyridin-2-yl]piperazin-1-yl}pyrimidine]
Cc1cc(-c2cc(N3CCN(c4ncccc4C(F)(F)F)CC3)nc(N3CCOCC3)n2)ccn1 [Example 575, 4-(4-(2-methylpyridin-4-yl)-6-{4-[3-(trifluoromethyl)pyridin-2-yl]piperazin-1-yl}pyrimidin-2-yl)morpholine]
Fc1ccc(-c2cc(N3CCN(c4ncccc4C(F)(F)F)CC3)nc(SCc3ccccc3)n2)cc1Cl [Example 649, 2-(benzylthio)-4-(3-chloro-4-fluorophenyl)-6-{4-[3-(trifluoromethyl)pyridin-2-yl]piperazin-1-yl}pyrimidine]
